Our source for the IC50 values is US20210198277A1, “AMINE-SUBSTITUTED ARYL OR HETEROARYL COMPOUNDS” (Epizyme, Inc., priority 2016, published 2021).

In test [1] the target is T1, human EHMT2 913-1193 (Homo sapiens, UniProt Q96KQ7).
T1 construct: recombinant purified human EHMT2 913-1193, Viva; purchased Viva
T1 sequence (Q96KQ7 913-1193): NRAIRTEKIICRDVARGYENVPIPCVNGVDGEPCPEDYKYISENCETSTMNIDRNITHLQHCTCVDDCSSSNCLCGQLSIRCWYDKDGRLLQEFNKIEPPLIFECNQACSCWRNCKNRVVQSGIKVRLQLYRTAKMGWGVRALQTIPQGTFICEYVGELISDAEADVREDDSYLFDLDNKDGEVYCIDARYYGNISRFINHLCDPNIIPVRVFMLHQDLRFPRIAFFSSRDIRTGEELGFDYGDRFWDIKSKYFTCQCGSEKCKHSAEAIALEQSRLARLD
Nature of the test: EHMT2 enzyme assay on histone peptide substrate (EHMT2 PEP). It is filed as biochemical. To be noted: Table II; read-out: EHMT2 PEP (IC50 μM). The procedure, abridged: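 Inhibition is measured as reduced tritium incorporation into a biotinylated histone peptide from ^3H-SAM. The enzyme (0.031 nM) sees compound for 30 minutes before a 60-minute room-temperature reaction, which unlabeled SAM quenches prior to streptavidin Flashplate capture.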

Test [2] deals with T2, EHMT1 (Homo sapiens, UniProt Q9H9B1).
T2 sequence (Q9H9B1 1-1298): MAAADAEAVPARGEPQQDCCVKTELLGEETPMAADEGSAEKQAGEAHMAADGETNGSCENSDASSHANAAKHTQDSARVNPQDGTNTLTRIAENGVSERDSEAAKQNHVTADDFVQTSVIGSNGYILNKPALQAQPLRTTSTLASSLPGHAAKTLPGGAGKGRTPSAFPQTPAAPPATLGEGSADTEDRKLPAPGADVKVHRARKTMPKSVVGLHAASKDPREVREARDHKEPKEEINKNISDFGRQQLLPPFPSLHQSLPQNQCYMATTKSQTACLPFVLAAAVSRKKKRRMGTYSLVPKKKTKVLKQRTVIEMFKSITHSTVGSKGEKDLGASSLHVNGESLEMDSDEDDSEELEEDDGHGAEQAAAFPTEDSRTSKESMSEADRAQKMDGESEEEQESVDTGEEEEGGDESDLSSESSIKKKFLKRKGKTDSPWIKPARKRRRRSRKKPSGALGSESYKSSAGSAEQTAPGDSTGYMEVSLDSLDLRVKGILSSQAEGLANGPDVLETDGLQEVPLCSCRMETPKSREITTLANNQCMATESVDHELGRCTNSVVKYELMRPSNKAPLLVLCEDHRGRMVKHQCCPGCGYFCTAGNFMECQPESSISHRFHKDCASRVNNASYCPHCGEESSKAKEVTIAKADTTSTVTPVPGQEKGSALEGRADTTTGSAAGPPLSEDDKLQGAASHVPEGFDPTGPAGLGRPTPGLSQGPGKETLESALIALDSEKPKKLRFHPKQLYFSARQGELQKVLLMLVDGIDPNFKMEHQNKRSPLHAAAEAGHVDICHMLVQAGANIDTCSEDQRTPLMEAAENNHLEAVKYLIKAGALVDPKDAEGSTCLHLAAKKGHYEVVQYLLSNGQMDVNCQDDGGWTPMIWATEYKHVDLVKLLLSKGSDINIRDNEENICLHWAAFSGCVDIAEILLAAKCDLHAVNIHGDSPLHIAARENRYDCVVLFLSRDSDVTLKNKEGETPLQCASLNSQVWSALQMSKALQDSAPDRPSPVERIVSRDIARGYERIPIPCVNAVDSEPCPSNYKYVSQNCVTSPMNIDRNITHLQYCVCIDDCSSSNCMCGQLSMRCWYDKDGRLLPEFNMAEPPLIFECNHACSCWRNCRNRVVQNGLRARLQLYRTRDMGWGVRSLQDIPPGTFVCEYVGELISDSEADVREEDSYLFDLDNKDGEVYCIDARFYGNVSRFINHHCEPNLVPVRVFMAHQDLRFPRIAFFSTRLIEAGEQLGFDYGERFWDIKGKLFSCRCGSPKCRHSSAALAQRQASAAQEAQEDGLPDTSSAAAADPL
In words: EHMT1 enzyme assay on peptide substrate (EHMT1 PEP). To be noted: Table II; read-out: EHMT1 PEP (IC50 μM). Format: biochemical.

SMILES strings stand for the structures.

By IC50 is commonly meant the concentration that inhibits the measured activity by half. Regarding `CCOC(=O)N1CCC(CNc2ccnc(Nc3ccc(OC)c(OCCCN4CCCC4)c3)n2)CC1` [Compound 203], the IC50 in test [1] and in test [2] was 0.1 to 1 µM each time.

With `COc1ccc(Nc2nccc(NCC3CCOCC3)n2)cc1OCCN1CCOCC1` [Compound 204], the half-inhibitory concentration (IC50) in test [1] and in test [2] was 1 to 10 µM throughout.
